Source: patent US20210108247A1, “CHEMOENZYMATIC SYNTHESIS OF TREHALOSE ANALOGUES” (Central Michigan University, priority 2014, published 2021)

How the values were obtained:
Format in all cases: cell-based
M. smegmatis wild type [1] = test: Uptake of fluoro trehalose, GC-MS of cytosolic extracts; settings: 100 μM, 1 h, 37° C.
Method: Cultures of M. smegmatis wild type, ΔsugC mutant, or ΔsugC::sugC complement were generated by inoculating a single colony from a freshly streaked agar plate (with appropriate antibiotic, if needed) into 3 mL Middlebrook 7H9 liquid medium supplemented with ADC (albumin, dextrose, and catalase), 0.5% glycerol, and 0.05% Tween-80 in a culture tube. Starter cultures were incubated at 37° C. with shaking until reaching log phase. Cells were then cultured at 37° C. in the presence or absence of 2-, 3-, 4-, or 6-fluoro trehalose (100 μM) in 7H9 liquid medium for 1 h, then centrifuged and washed (5000 rpm for 5 min) three times in ultrapure water. The washed cells were resuspended in ultrapure water and boiled for 4 h, then centrifuged. The supernatant was collected and dried on a speedvac to yield water-soluble cytosolic metabolites (e.g., trehalose and fluoro trehaloses, if present), which were subsequently trimethylsilyl (TMS)-derivatized using N-Methyl-N-(trimethylsilyl) trifluoroacetamide (MSTFA) in pyridine and analyzed by gas chromatography-mass spectrometry (GC-MS).

M. smegmatis wild type [2] = test: One-pot metabolic labeling and fluorescence imaging (CuAAC with alkyne fluorophore); settings: +TreT reaction mixture, 25 μM azido sugar, 4 h, 37° C.
[3] = tested on: M. smegmatis ΔsugC mutant; test: as above; settings: ΔsugC mutant missing the trehalose transporter; 25 μM, 4 h
Method: One-Pot Metabolic Labeling and Imaging of M. smegmatis: Cultures of M. smegmatis wild type, ΔsugC mutant, or ΔsugC::sugC complement were generated by inoculating a single colony from a freshly streaked agar plate (with appropriate antibiotic, if needed) into 3 mL Middlebrook 7H9 liquid medium supplemented with ADC (albumin, dextrose, and catalase), 0.5% glycerol, and 0.05% Tween-80 in a culture tube. Starter cultures were incubated at 37° C. with shaking until reaching log phase. Meanwhile, using the procedure described above, a 50 μL TreT reaction employing 6-GlcAz (10 mM) as the substrate was carried out to synthesize 6-TreAz (+TreT sample). A control reaction lacking TreT was run in parallel (−TreT control). […] Given the observed quantitative conversion for this reaction (FIG. 1B, Entry 16), a 6-TreAz concentration of 10 mM was assumed in the +TreT sample. […] Fluorescence imaging was performed using a GFP LED light cube (maximum excitation/emission=470/510 nm). […]
The same experiments were performed in M. smegmatis ΔsugC, a mutant missing the trehalose transporter required for 6-TreAz uptake and labeling, as well as its complement, M. smegmatis ΔsugC::sugC. Fluorescence was abolished in the ΔsugC mutant and restored in the complement, confirming that 6-TreAz labeling proceeded via the trehalose transporter pathway.

[4] = tested on: M. smegmatis ΔsugC::sugC complement; test: as above; settings: 25 μM, 4 h
Method: One-Pot Metabolic Labeling and Imaging of M. smegmatis: Cultures of M. smegmatis wild type, ΔsugC mutant, or ΔsugC::sugC complement were generated by inoculating a single colony from a freshly streaked agar plate (with appropriate antibiotic, if needed) into 3 mL Middlebrook 7H9 liquid medium supplemented with ADC (albumin, dextrose, and catalase), 0.5% glycerol, and 0.05% Tween-80 in a culture tube. Starter cultures were incubated at 37° C. with shaking until reaching log phase. Meanwhile, using the procedure described above, a 50 μL TreT reaction employing 6-GlcAz (10 mM) as the substrate was carried out to synthesize 6-TreAz (+TreT sample). A control reaction lacking TreT was run in parallel (−TreT control). After incubation at 70° C. for 1 h, the reactions were stopped by placing on ice. Given the observed quantitative conversion for this reaction (FIG. 1B, Entry 16), a 6-TreAz concentration of 10 mM was assumed in the +TreT sample. For the −TreT control, a 6-GcAz concentration of 10 mM was assumed. The aqueous reaction mixtures were directly diluted into M. smegmatis wild type, ΔsugC mutant, or ΔsugC::sugC complement growing in 7H9 liquid medium to a final azido sugar concentration of 25 μM and a culture density of OD600=0.15. […] Fluorescence imaging was performed using a GFP LED light cube (maximum excitation/emission=470/510 nm). […]

Compound	fluoro trehalose derivative in cytosolic extracts (uptake) (M. smegmatis wild type [1])	fluorescence labeling of bacteria (fluorescence microscopy) (M. smegmatis wild type [2])	fluorescence labeling of bacteria (fluorescence microscopy) [3]	fluorescence labeling of bacteria (fluorescence microscopy) [4]
OC[C@H]1O[C@H](O[C@H]2O[C@H](CO)[C@@H](O)[C@H](O)[C@H]2F)[C@H](O)[C@@H](O)[C@@H]1O [2-fluoro trehalose, 2-Deoxy-2-fluoro-α,α-D-trehalose]	observed in cytosolic extracts			
OC[C@H]1O[C@H](O[C@H]2O[C@H](CO)[C@@H](O)[C@H](F)[C@H]2O)[C@H](O)[C@@H](O)[C@@H]1O [3-fluoro trehalose, 3-Deoxy-3-fluoro-α,α-D-trehalose]	observed in cytosolic extracts			
[N-]=[N+]=NC[C@H]1O[C@H](O[C@H]2O[C@H](CO)[C@@H](O)[C@H](O)[C@H]2O)[C@H](O)[C@@H](O)[C@@H]1O [6-TreAz, 6-Azido-6-Deoxy-α,α-D-trehalose]		strong labeling	abolished	restored
OC[C@H]1O[C@H](O[C@H]2O[C@H](CF)[C@@H](O)[C@H](O)[C@H]2O)[C@H](O)[C@@H](O)[C@@H]1O [6-fluoro trehalose]	observed in cytosolic extracts			
